≈ marks a conversion by molar mass, not a printed value. Calls of active or inactive are those of the source. The calls are words filed in the database; no cut-off is given here.
Tests used:
Enterococcus = assay: Antibacterial activity against vancomycin-resistant Enterococcus ATCC 700221 assessed as inhibition of bacterial growth measured after 24 hrs by MH broth based assay; assay type: functional
Bacillus subtilis = assay: Antibacterial activity against Bacillus subtilis ATCC 6633 assessed as inhibition of bacterial growth measured after 24 hrs by MH broth based assay; assay type: functional
Staphylococcus aureus [1] = assay: Antibacterial activity against Staphylococcus aureus ATCC 29213 assessed as inhibition of bacterial growth measured after 24 hrs by MH broth based assay; assay type: functional
Staphylococcus aureus [2] = assay: Antibacterial activity against methicillin-resistant Staphylococcus aureus ATCC 43300 assessed as inhibition of bacterial growth measured after 24 hrs by MH broth based assay; assay type: functional
Streptococcus pneumoniae [3] = assay: Antibacterial activity against Streptococcus pneumoniae ATCC 49619 assessed as inhibition of bacterial growth measured after 24 hrs by MH broth based assay; assay type: functional
[4] = test system: Staphylococcus epidermidis; assay: Antibacterial activity against methicillin-resistant Staphylococcus epidermidis ATCC 51625 assessed as inhibition of bacterial growth measured after 24 hrs by MH broth based assay; assay type: functional
Klebsiella pneumoniae [5] = assay: Antibacterial activity against Klebsiella pneumonia CMCC (B) 46117 assessed as inhibition of bacterial growth measured after 24 hrs by MH broth based assay; assay type: functional
Escherichia coli [6] = assay: Antibacterial activity against Escherichia coli ATCC 25922 assessed as inhibition of bacterial growth measured after 24 hrs by MH broth based assay; assay type: functional
Proteus = assay: Antibacterial activity against Proteus CMCC (B) 49027 assessed as inhibition of bacterial growth measured after 24 hrs by MH broth based assay; assay type: functional
Staphylococcus aureus [7] = assay: Antibacterial activity against clinical isolate Staphylococcus aureus harbouring IsaE gene assessed as inhibition of bacterial growth measured after 24 hrs by MH broth based assay; assay type: functional
Staphylococcus aureus [8] = assay: Antibacterial activity against clinical isolate Staphylococcus aureus harbouring cfr gene assessed as inhibition of bacterial growth measured after 24 hrs by MH broth based assay; assay type: functional
Staphylococcus aureus [9] = assay: Antibacterial activity against clinical isolate Staphylococcus aureus harbouring erm C gene assessed as inhibition of bacterial growth measured after 24 hrs by MH broth based assay; assay type: functional
Staphylococcus aureus [10] = assay: Antibacterial activity against clinical isolate Staphylococcus aureus harbouring cfr and erm C gene assessed as inhibition of bacterial growth measured after 24 hrs by MH broth based assay; assay type: functional
Staphylococcus aureus [11] = assay: Antibacterial activity against clinical isolate Staphylococcus aureus harbouring IsaA, cfr and erm A gene assessed as inhibition of bacterial growth measured after 24 hrs by MH broth based assay; assay type: functional
Staphylococcus aureus [12] = assay: Antibacterial activity against clinical isolate Staphylococcus aureus harbouring tet38 gene assessed as inhibition of bacterial growth measured after 24 hrs by MH broth based assay; assay type: functional
Staphylococcus aureus [13] = assay: Antibacterial activity against clinical isolate Staphylococcus aureus harbouring blaZ gene assessed as inhibition of bacterial growth measured after 24 hrs by MH broth based assay; assay type: functional
Staphylococcus aureus [14] = assay: Antibacterial activity against clinical isolate Staphylococcus aureus harbouring ArlS, norA and MgrA gene assessed as inhibition of bacterial growth measured after 24 hrs by MH broth based assay; assay type: functional
Streptococcus pneumoniae [15] = assay: Antibacterial activity against clinical isolate Streptococcus pneumoniae harbouring ermB gene assessed as inhibition of bacterial growth measured after 24 hrs by MH broth based assay; assay type: functional
Aerococcus viridans = assay: Antibacterial activity against clinical isolate Aerococcus viridans harbouring optrA and ErmA gene assessed as inhibition of bacterial growth measured after 24 hrs by MH broth based assay; assay type: functional
Streptococcus suis = assay: Antibacterial activity against clinical isolate Streptococcus suis harbouring IsaE and ErmA gene assessed as inhibition of bacterial growth measured after 24 hrs by MH broth based assay; assay type: functional
Streptococcus parasuis [16] = assay: Antibacterial activity against clinical isolate Streptococcus parasuis harbouring InuD gene assessed as inhibition of bacterial growth measured after 24 hrs by MH broth based assay; assay type: functional
Streptococcus parasuis [17] = assay: Antibacterial activity against clinical isolate Streptococcus parasuis harbouring optrA gene assessed as inhibition of bacterial growth measured after 24 hrs by MH broth based assay; assay type: functional
[18] = test system: Streptococcus hyovaginalis; assay: Antibacterial activity against clinical isolate Streptococcus hyovaginalis harbouring IsaE and optrA gene assessed as inhibition of bacterial growth measured after 24 hrs by MH broth based assay; assay type: functional
[19] = test system: Streptococcus hyovaginalis; assay: Antibacterial activity against clinical isolate Streptococcus hyovaginalis harbouring ErmB and tetO gene assessed as inhibition of bacterial growth measured after 24 hrs by MH broth based assay; assay type: functional
Enterococcus hirae = assay: Antibacterial activity against clinical isolate Enterococcus hirae assessed as inhibition of bacterial growth measured after 24 hrs by MH broth based assay; assay type: functional
Enterococcus lactis = assay: Antibacterial activity against clinical isolate Enterococcus lactis assessed as inhibition of bacterial growth measured after 24 hrs by MH broth based assay; assay type: functional
Escherichia coli [20] = assay: Antibacterial activity against clinical isolate Escherichia coli harbouring NDM-17 gene assessed as inhibition of bacterial growth measured after 24 hrs by MH broth based assay; assay type: functional
Klebsiella pneumoniae [21] = assay: Antibacterial activity against clinical isolate Klebsiella pneumoniae harbouring mcr-8 gene assessed as inhibition of bacterial growth measured after 24 hrs by MH broth based assay; assay type: functional
Klebsiella pneumoniae [22] = assay: Antibacterial activity against clinical isolate Klebsiella pneumoniae harbouring blaKpc gene assessed as inhibition of bacterial growth measured after 24 hrs by MH broth based assay; assay type: functional
Escherichia coli [23] = assay: Antibacterial activity against Escherichia coli MG1655 assessed as inhibition of bacterial growth measured after 24 hrs by MH broth based assay; assay type: functional
Escherichia coli [24] = assay: Antibacterial activity against Escherichia coli MG1655 harbouring acrB gene assessed as inhibition of bacterial growth measured after 24 hrs by MH broth based assay; assay type: functional
Staphylococcus aureus [25] = assay: Antibacterial activity against clinical isolate multi-drug resistant Staphylococcus aureus sal assessed as reduction in log10 CFU at 6 times of MIC measured after 8 hrs by time-kill assay; assay type: functional
Staphylococcus aureus [26] = assay: Antibacterial activity against clinical isolate multi-drug resistant Staphylococcus aureus sal assessed as inhibition of bacterial growth; assay type: functional
Staphylococcus aureus [27] = assay: Antibacterial activity against methicillin-resistant Staphylococcus aureus assessed as resistance development by measuring fold increase in MIC measured after 24 days; assay type: functional; conditions: time 24 day
Staphylococcus aureus [28] = assay: Antibacterial activity against compound-resistant/methicillin-resistant Staphylococcus aureus assessed as inhibition of bacterial growth; assay type: functional
Staphylococcus aureus [29] = assay: Antibacterial activity against tiamulin-resistant/methicillin-resistant Staphylococcus aureus assessed as inhibition of bacterial growth; assay type: functional
Staphylococcus aureus [30] = assay: Antibacterial activity against Staphylococcus aureus ATCC 29213 assessed as inhibition of bacterial division at 1 to 4 times of MIC by SEM analysis; assay type: functional, organism-based
Staphylococcus aureus [31] = assay: Antibacterial activity against multi-drug resistant Staphylococcus aureus sa1 infected in BABL/C mouse assessed as survival rate at 40 mg/kg, ip measured upto 7 days; assay type: functional; conditions: sa1, 168 h, time <= 7 day
Staphylococcus aureus [32] = assay: Antibacterial activity against multi-drug resistant Staphylococcus aureus sa1 infected in ip dosed BABL/C mouse assessed as survival rate measured upto 7 days; assay type: functional; conditions: sa1, 168 h, time <= 7 day
Staphylococcus aureus [33] = assay: Antibacterial activity against multi-drug resistant Staphylococcus aureus sa1 infected in BABL/C mouse assessed as reduction in bacterial load in lungs at 40 mg/kg, ip measured after 2 days; assay type: functional; conditions: time 2 day
Staphylococcus aureus [34] = assay: Antibacterial activity against multi-drug resistant Staphylococcus aureus sa1 infected in BABL/C mouse assessed as reduction in bacterial load in lungs at 20 mg/kg, ip measured after 2 days; assay type: functional; conditions: time 2 day
Staphylococcus aureus [35] = assay: Antibacterial activity against multi-drug resistant Staphylococcus aureus sa1 infected in BABL/C mouse assessed as appearance of alveolar septa thickening at 20 to 40 mg/kg, ip; assay type: functional, organism-based; conditions: dose 20-40 mg/kg
Staphylococcus aureus [36] = assay: Antibacterial activity against multi-drug resistant Staphylococcus aureus sa1 infected in BABL/C mouse assessed as appearance of congested pulmonary capillaries at 20 mg/kg, ip; assay type: functional, organism-based
Staphylococcus aureus [37] = assay: Antibacterial activity against multi-drug resistant Staphylococcus aureus sa1 infected in BABL/C mouse assessed as lymphocyte infiltration at 20 mg/kg, ip; assay type: functional, organism-based
Staphylococcus aureus [38] = assay: Antibacterial activity against multi-drug resistant Staphylococcus aureus sa1 infected in BABL/C mouse assessed as neutrophil infiltration at 20 mg/kg, ip; assay type: functional, organism-based

C=C[C@]1(C)C[C@@H](OC(=O)CSCCN(CC)CC)[C@]2(C)[C@H](C)CC[C@]3(CCC(=O)[C@H]32)[C@@H](C)[C@@H]1O [TIAMULIN]
MIC (Enterococcus): 64 µg/mL (≈ 130 µM) | MIC (Bacillus subtilis): 64 µg/mL (≈ 130 µM) | MIC (Staphylococcus aureus [1]): 0.5 µg/mL (≈ 1.01 µM) | MIC (Staphylococcus aureus [2]): 0.5 µg/mL (≈ 1.01 µM) | MIC (Streptococcus pneumoniae [3]): 0.063 µg/mL (≈ 0.128 µM) | MIC [4]: 0.25 µg/mL (≈ 0.506 µM) | MIC (Klebsiella pneumoniae [5]): 16 µg/mL (≈ 32.4 µM) | MIC (Escherichia coli [6]): > 64 µg/mL | MIC (Proteus): > 64 µg/mL | MIC (Staphylococcus aureus [7]): 128 µg/mL (≈ 259 µM) | MIC (Staphylococcus aureus [8]): 128 µg/mL (≈ 259 µM) | MIC (Staphylococcus aureus [9]): 32 µg/mL (≈ 64.8 µM) | MIC (Staphylococcus aureus [10]): 128 µg/mL (≈ 259 µM) | MIC (Staphylococcus aureus [11]): 128 µg/mL (≈ 259 µM) | MIC (Staphylococcus aureus [12]): 0.25 µg/mL (≈ 0.506 µM) | MIC (Staphylococcus aureus [13]): 0.5 µg/mL (≈ 1.01 µM) | MIC (Staphylococcus aureus [14]): 0.5 µg/mL (≈ 1.01 µM) | MIC (Streptococcus pneumoniae [15]): 32 µg/mL (≈ 64.8 µM) | MIC (Aerococcus viridans): 32 µg/mL (≈ 64.8 µM) | MIC (Streptococcus suis): 64 µg/mL (≈ 130 µM) | MIC (Streptococcus parasuis [16]): 64 µg/mL (≈ 130 µM) | MIC (Streptococcus parasuis [17]): 64 µg/mL (≈ 130 µM) | MIC [18]: 64 µg/mL (≈ 130 µM) | MIC [19]: 64 µg/mL (≈ 130 µM) | MIC (Enterococcus hirae): 8 µg/mL (≈ 16.2 µM) | MIC (Enterococcus lactis): 128 µg/mL (≈ 259 µM) | MIC (Escherichia coli [20]): 64 µg/mL (≈ 130 µM) | MIC (Klebsiella pneumoniae [21]): 16 µg/mL (≈ 32.4 µM) | MIC (Klebsiella pneumoniae [22]): 32 µg/mL (≈ 64.8 µM) | MIC (Escherichia coli [23]): 64 µg/mL (≈ 130 µM) | MIC (Escherichia coli [24]): 2 µg/mL (≈ 4.05 µM) | Activity (Staphylococcus aureus [25]): Active | MIC (Staphylococcus aureus [26]): 128 µg/mL (≈ 259 µM) | fold change (FC) (Staphylococcus aureus [27]): 64 | MIC (Staphylococcus aureus [28]): 1 µg/mL (≈ 2.03 µM) | MIC (Staphylococcus aureus [29]): 64 µg/mL (≈ 130 µM) | Activity (Staphylococcus aureus [30]): Active | survival at 40 mg/kg (Staphylococcus aureus [31]): 50% | ED50 (Staphylococcus aureus [32]): 47.5 mg/kg | Activity (Staphylococcus aureus [33]): 1.94 log10CFU/ml | Activity (Staphylococcus aureus [34]): 1.35 log10CFU/ml | Activity (Staphylococcus aureus [35]): Active | Activity (Staphylococcus aureus [36]): Active | Activity (Staphylococcus aureus [37]): Active | Activity (Staphylococcus aureus [38]): Active

Source: ChEMBL document CHEMBL5346923, “Novel pyridinium cationic pleuromutilin analogues overcoming bacterial multidrug resistance” (Eur J Med Chem, 2023)
